Source: PubChem BioAssay (NCI)
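Step 1: Grow cells in 96-well plates. Step 2: Expose to compound for 48 hours at 5 concentrations. Step 3: Interpolate endpoints linearly; if unreached, use highest concentration. TGI denotes the concentration required for complete inhibition of growth.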

How the values were obtained:
Assay in all cases: inhibition of tumour cell growth, NCI panel, 48 h
[1] = tested on: ACHN renal
[2] = tested on: BT-549 breast
[3] = tested on: COLO 205 colon
[4] = tested on: HCC-2998 colon
[5] = tested on: HOP-62 NSCLC
[6] = tested on: HOP-92 NSCLC
[7] = tested on: MDA-MB-435
[8] = tested on: MDA-N
[9] = tested on: MOLT-4 leukemia
[10] = tested on: PC-3 prostate
[11] = tested on: RXF 393 renal
[12] = tested on: SF-539 CNS
[13] = tested on: SK-OV-3 ovarian
[14] = tested on: SR leukemia
[15] = tested on: SW-620 colon
[16] = tested on: UO-31 renal

| SMILES | TGI [1] | TGI [2] | TGI [3] | TGI [4] | TGI [5] | TGI [6] | TGI [7] | TGI [8] | TGI [9] | TGI [10] | TGI [11] | TGI [12] | TGI [13] | TGI [14] | TGI [15] | TGI [16] |
| --- | --- | --- | --- | --- | --- | --- | --- | --- | --- | --- | --- | --- | --- | --- | --- | --- |
| C#CC1NC(=O)C1N(CC)CC (centres undefined) | > 100 µM | > 100 µM | > 100 µM | > 100 µM | > 100 µM | > 100 µM | > 100 µM | > 100 µM | > 100 µM | > 100 µM | > 100 µM | > 100 µM | > 100 µM | > 100 µM | > 100 µM | > 100 µM |
| O=C1C(S(=O)(=O)c2ccccc2)=C(CS(=O)(=O)c2ccccc2)[C@@H](OCc2ccccc2)[C@@H]1OCc1ccccc1 | > 100 µM | 27 µM | 61.3 µM | 36.3 µM | 53.2 µM | 32.7 µM | 92.7 µM | 88.7 µM | 46.7 µM | 85.8 µM | 27.8 µM | 40.6 µM | > 100 µM | 33.5 µM | 36.4 µM | 37.1 µM |
| CC1(C)C2CCC(O)(C2)C1N (centres undefined) | > 100 µM | > 100 µM | > 100 µM | > 100 µM | > 100 µM | > 100 µM | > 100 µM | > 100 µM | > 100 µM | > 100 µM | > 100 µM | > 100 µM | > 100 µM | > 100 µM | > 100 µM | > 100 µM |
| COc1ccc(/C(=N\Nc2ccccn2)c2ccccn2)cc1 | 2.81 µM | > 100 µM | 12.1 µM | 35.9 µM | 10.4 µM | > 24.3 µM | 22.3 µM | > 100 µM | > 58.3 µM | > 100 µM | 36.6 µM | 6.6 µM | 10.1 µM | > 33.7 µM | 30.4 µM | 0.629 µM |
| CCCCCCCCC/C=C1/CC(CO)(COC(=O)c2ccccc2)OC1=O (centres undefined) | 24.9 µM | 27.1 µM | 11.8 µM | 27.8 µM | 19 µM | 14.4 µM | 23.3 µM | 20.6 µM | 29.9 µM | 23.1 µM | 31 µM | 34.8 µM | 36 µM | 54 µM | 27.4 µM | 27.2 µM |
| CN(C)c1ccc(/C=C/c2cc(-c3ccccc3)[n+](C)n2-c2ccccc2)cc1 | 16 µM | 0.613 µM | 0.42 µM | 56.4 µM | 12.4 µM | 16.6 µM | 2.98 µM | 13.6 µM | 3.41 µM | 3.27 µM | 4.18 µM | 29 µM | 4.33 µM | > 30 µM | > 35.1 µM | 6.66 µM |
| Cc1ccc(N2C(N)=C(C#N)C(C#N)(C#N)C2c2ccccc2)cc1 (centres undefined) | 28.2 µM | 23.5 µM | 24 µM | 25.8 µM | 36.9 µM | 21.8 µM | 14.1 µM | 12 µM | 8.27 µM | 44.9 µM | 25.3 µM | 29.2 µM | 47.6 µM | 33.7 µM | 15.2 µM | 32 µM |
| CC1=NN(c2nc(N)nc(/C(C#N)=C\c3cccc([N+](=O)[O-])c3)n2)C(C)(C)C1 | > 51.4 µM | > 89.8 µM | > 48 µM | 22.2 µM | 43.8 µM | > 100 µM | > 26 µM | > 33.3 µM | > 66.5 µM | > 53.8 µM | 14.3 µM | 36.5 µM | 57.4 µM | > 73.1 µM | > 51 µM | 15.7 µM |
| COC(=O)C1=NN2c3ccccc3CN([C@@H](C)c3ccccc3)C(=O)[C@@H]2[C@H]1c1ccccc1 | > 100 µM | > 100 µM | > 100 µM | > 100 µM | > 100 µM | > 100 µM | > 100 µM | > 100 µM | > 100 µM | > 100 µM | > 100 µM | > 100 µM | > 100 µM | > 100 µM | > 100 µM | > 100 µM |
| Cc1ccc(N=C2C(c3ccccc3)=C(SC3=C(c4ccccc4)C(=Nc4ccc(C)cc4)c4ccccc43)c3ccccc32)cc1 | 18.3 µM | > 62.8 µM | > 100 µM | > 54.1 µM | 22.9 µM | 33.2 µM | > 100 µM | > 100 µM | > 100 µM | > 100 µM | 27.9 µM | 24.6 µM | 35.4 µM | > 100 µM | > 100 µM | 33.3 µM |
| COc1cccc(/C=C\c2ccc(O)cc2)c1 | > 89.2 µM | 58.4 µM | > 100 µM | > 62.8 µM | > 100 µM | 64.8 µM | > 91.2 µM | > 100 µM | 38.7 µM | 99.5 µM | > 78.8 µM | 53.1 µM | > 100 µM | 20.1 µM | > 90.7 µM | 33.7 µM |
| COc1ccc(/C=C/C(=O)c2ccc(OC(=O)/C=C/c3ccccc3)cc2)cc1 | > 100 µM | > 58.3 µM | > 71.6 µM | 32.8 µM | > 100 µM | > 100 µM | > 100 µM | > 100 µM | 50.6 µM | > 100 µM | > 100 µM | > 53.5 µM | > 100 µM | 16.9 µM | 98.9 µM | > 91.5 µM |
| O=c1oc2ccc3ccccc3c2cc1-c1nc2ccc([N+](=O)[O-])cc2o1 | > 24.2 µM | > 95 µM | > 100 µM | > 100 µM | > 45.2 µM | > 91 µM | > 100 µM | > 100 µM | > 100 µM | > 100 µM | 19.1 µM | 26.3 µM | > 100 µM | > 100 µM | > 100 µM | > 92.1 µM |
| CC(=O)/C(C=Nc1c(C)n(C)n(C)c1=O)=C(/O)c1ccccc1 | > 50 µM | > 50 µM | > 50 µM | > 50 µM | > 50 µM | > 50 µM | > 50 µM | > 50 µM | > 50 µM | > 50 µM | > 50 µM | > 50 µM | > 50 µM | > 50 µM | > 50 µM | > 50 µM |
